Data reported in PubChem BioAssay (NCI).
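A five-concentration, 48-hour dose response in 96-well plates underlies each endpoint, interpolated linearly between surrounding concentrations. GI50 = concentration required for 50% inhibition of growth. TGI denotes the concentration required for complete inhibition of growth.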

Key:
Experiment in all cases: NCI tumour cell line growth inhibition, 48 h
CAKI-1 renal = test system: CAKI-1 renal
SF-295 CNS = test system: SF-295 CNS
ACHN renal = test system: ACHN renal
NCI-H460 lung = test system: NCI-H460 lung
K-562 leukemia = test system: K-562 leukemia
MOLT-4 leukemia = test system: MOLT-4 leukemia
SK-MEL-2 melanoma = test system: SK-MEL-2 melanoma
NCI-H226 lung = test system: NCI-H226 lung
CCRF-CEM leukemia = test system: CCRF-CEM leukemia
MCF7 breast = test system: MCF7 breast

Structure (SMILES)	GI50 (CAKI-1 renal)	TGI (CAKI-1 renal)	GI50 (SF-295 CNS)	TGI (SF-295 CNS)	GI50 (ACHN renal)	TGI (ACHN renal)	GI50 (NCI-H460 lung)	TGI (NCI-H460 lung)	GI50 (K-562 leukemia)	TGI (K-562 leukemia)	GI50 (MOLT-4 leukemia)	TGI (MOLT-4 leukemia)	GI50 (SK-MEL-2 melanoma)	TGI (SK-MEL-2 melanoma)	TGI (NCI-H226 lung)	TGI (CCRF-CEM leukemia)	GI50 (NCI-H226 lung)	GI50 (CCRF-CEM leukemia)	GI50 (MCF7 breast)	TGI (MCF7 breast)
CC(=O)C(=CN1CCN(C(=O)c2ccco2)C1=S)C(C)=O	5.19 µM	19.1 µM	21.7 µM	52.6 µM	2.87 µM	8.04 µM	1.5 µM	3.42 µM	38.4 µM	> 100 µM	8.2 µM	> 100 µM	3.34 µM	8.52 µM						
C/C(CC(=O)NCCc1ccccc1)=N\NC(=O)C[n+]1ccccc1				> 100 µM		> 100 µM		> 100 µM		> 100 µM		> 100 µM		> 100 µM	> 100 µM					
O=C1/C(=C/c2cccc([N+](=O)[O-])c2)COc2ccc(Br)cc21				> 100 µM		> 100 µM		> 100 µM		> 100 µM		96 µM		> 100 µM		> 100 µM				
Clc1ccc2c(c1)-c1c3c(nn1-c1ccccc1)-c1ccccc1SC3O2 (centres undefined)				> 100 µM		> 100 µM		> 100 µM		> 100 µM		> 100 µM		> 100 µM		> 100 µM				
O=C1NC2OC(C(O)CO)C(O)C2O1 (centres undefined)		> 100 µM		> 100 µM		> 100 µM		> 100 µM		> 100 µM		> 100 µM		> 100 µM		> 100 µM				
O=C1OC2CCCC[C@@H]2C2C[C@]34CCCCC3[C@@H](C(=O)O4)C12 (some centres undefined)				> 100 µM		> 100 µM		> 100 µM		> 100 µM		> 100 µM		> 100 µM	> 100 µM	> 100 µM				
C1C[OH+]CC[OH+]CC[OH+]CC[OH+]CC[OH+]1.[Cl-].[V]	82.2 µM	> 100 µM	28.5 µM	> 100 µM	75 µM	> 100 µM	46.2 µM	> 100 µM	> 100 µM	> 100 µM	> 100 µM	> 100 µM	48.2 µM	> 100 µM	> 100 µM	> 100 µM	28.1 µM	> 100 µM		
CCOC(=O)NC(=O)c1cn(CCCOC(=O)CCCCCCCCCCC(=O)OCCCn2cc(C(=O)NC(=O)OCC)c(=O)[nH]c2=O)c(=O)[nH]c1=O				> 100 µM		> 100 µM		> 100 µM		> 100 µM		> 100 µM		> 100 µM	> 100 µM	> 100 µM				
CSC(C1c2ccccc2N(c2ccc(C)cc2)c2[nH]c(=O)n(C)c(=O)c21)S(=O)(=O)c1ccc(C)cc1 (centres undefined)		> 100 µM		> 100 µM				> 100 µM		> 100 µM		> 100 µM		> 100 µM	> 100 µM	> 100 µM				
Cc1ccc(S(=O)(=O)C(C#N)c2nc3ccccc3nc2-n2ccnc2)cc1 (centres undefined)				> 100 µM		> 100 µM		> 100 µM		> 100 µM		> 100 µM		> 100 µM	> 100 µM	> 100 µM				
Cc1c(C(=O)/C=C/c2ccccc2)[n+](=O)c2ccccc2n1[O-]		45.7 µM		31.5 µM		33.6 µM		35.6 µM		51.9 µM		54.6 µM			39.2 µM	74.7 µM				
COc1c(C(C)C)cc2c3c1OC(=O)[C@@]31CCCC(C)(C)C1CC2 (some centres undefined)		> 100 µM		78.7 µM		> 100 µM		> 100 µM		> 100 µM		> 100 µM		84 µM	44.4 µM	59.7 µM				
O=C1CCC(O)=C1N=Nc1ccccc1		> 100 µM		> 100 µM		> 100 µM		> 100 µM		> 100 µM		> 100 µM		> 100 µM	> 100 µM	> 100 µM				
CN(C)c1cc[c]([Sn]([c]2ccc(N(C)C)cc2)([c]2ccc(N(C)C)cc2)[c]2ccc(N(C)C)cc2)cc1	5.13 µM	19.4 µM	10.9 µM	25.7 µM	14.5 µM	34.2 µM	12 µM	28.1 µM	2.02 µM	7.33 µM	1.93 µM	6.22 µM	6.83 µM	29.3 µM		5.72 µM		1.26 µM		
O=C(O)[C@H](NS(=O)(=O)c1ccc([N+](=O)[O-])cc1)c1ccccc1		> 100 µM		> 100 µM		> 100 µM		> 100 µM		> 100 µM		> 100 µM		> 100 µM	> 100 µM	> 100 µM				
CN(CCC#N)c1ccc(/C=C(\C#N)c2ccc(Br)cc2)cc1	> 100 µM	> 100 µM			> 100 µM	> 100 µM			3.5 µM	> 100 µM					> 100 µM		> 100 µM		4.05 µM	> 100 µM
